In brackets after ≈: the same amount, converted by molar mass. ± gives the standard deviation of the averaged measurements. A value given as a limit tells only on which side of the number the result lay.

Common to all, as to experiment: minimum inhibitory concentration (MIC)
What all share (conditions): incubation time: 18 h

The subject of experiment [1] is Burkholderia contaminans J2956.
The subject of experiment [2] is Burkholderia contaminans ISS isolate s52.
Experiment [3] relates to Burkholderia cepacia ISS isolate s33.
Experiment [4] has as its system Burkholderia cepacia ISS isolate s9.
Experiment [5] has as its system Burkholderia contaminans ISS isolate s47.
Experiment [6] deals with Burkholderia cepacia ISS isolate s15.
The subject of experiment [7] is Burkholderia contaminans ISS isolate s54.
The test system of experiment [8] is Burkholderia cepacia ISS isolate s41.
Experiment [9] deals with Burkholderia cepacia ISS isolate s28.
Experiment [10] deals with Burkholderia cepacia ISS isolate s39.
Experiment [11] concerns Burkholderia cepacia ISS isolate s57.
Experiment [12] concerns Burkholderia cepacia ISS isolate s16.
Experiment [13] relates to Burkholderia cepacia ISS isolate s23.
Experiment [14] has as its system Burkholderia cepacia ISS isolate s35.
The subject of experiment [15] is Burkholderia contaminans ISS isolate s53.
In experiment [16] the test system is Burkholderia cepacia ISS isolate s18.
Experiment [17] deals with Burkholderia cepacia ATCC25416.
Experiment [18] has as its system Burkholderia cepacia ISS isolate s31.
The test system of experiment [19] is Burkholderia cepacia ISS isolate s20.
For experiment [20], the system named is Burkholderia cepacia ISS isolate s25.
In experiment [21] the test system is Burkholderia contaminans ISS isolate s56.
For experiment [22], the system named is Burkholderia cepacia ISS isolate s37.
For experiment [23], the system named is Burkholderia cepacia ISS isolate s36.
Experiment [24] concerns Burkholderia cepacia ISS isolate s24.
The subject of experiment [25] is Burkholderia cepacia ISS isolate s12.
The subject of experiment [26] is Burkholderia cepacia ISS isolate s22.

Regarding `CO/N=C(\C(=O)N[C@@H]1C(=O)N2C(C(=O)O)=C(COC(C)=O)CS[C@H]12)c1csc(N)n1` [cefotaxime], the minimum inhibitory concentration in experiment [1] was over 64 µg/mL; in [2], over 64 µg/mL; in [3], 20.2 ± 9.2 µg/mL (≈ 44.3 µM); in experiment [4], 20.2 ± 9.2 µg/mL (≈ 44.3 µM); in experiment [5], over 64 µg/mL; in experiment [6], 16 µg/mL (≈ 35.1 µM). Moreover, the minimum inhibitory concentration in experiment [7] is over 64 µg/mL; in experiment [8], 12.7 ± 14 µg/mL (≈ 27.9 µM); in experiment [9], 20.2 ± 9.2 µg/mL (≈ 44.3 µM); in experiment [10], 12.7 ± 14 µg/mL (≈ 27.9 µM); in [11], 11.3 ± 5.7 µg/mL (≈ 24.8 µM); in experiment [12], 20.2 ± 9.2 µg/mL (≈ 44.3 µM). The minimum inhibitory concentration was 20.2 ± 9.2 µg/mL (≈ 44.3 µM) in experiment [13]; 16 ± 12 µg/mL (≈ 35.1 µM) in experiment [14]; over 64 µg/mL in [15]; 20.2 ± 9.2 µg/mL (≈ 44.3 µM) in experiment [16]; 20.2 ± 9.2 µg/mL (≈ 44.3 µM) in [17]; 25.4 ± 9.2 µg/mL (≈ 55.8 µM) in [18]. The minimum inhibitory concentration in experiment [19] was 20.2 ± 9.2 µg/mL (≈ 44.3 µM); in [20] it was 12.7 ± 14 µg/mL (≈ 27.9 µM); in [21], over 64 µg/mL; in [22], 20.2 ± 9.2 µg/mL (≈ 44.3 µM); in experiment [23], 16 ± 12 µg/mL (≈ 35.1 µM); in [24], 20.2 ± 9.2 µg/mL (≈ 44.3 µM). In addition, the minimum inhibitory concentration in experiment [25] worked out at 16 ± 12 µg/mL (≈ 35.1 µM); in [26], 20.2 ± 9.2 µg/mL (≈ 44.3 µM).

Take `O=C(N[C@H](CO)[C@H](O)c1ccc([N+](=O)[O-])cc1)C(Cl)Cl` [chloramphenicol]: the minimum inhibitory concentration in [1] stood at 8 µg/mL (≈ 24.8 µM); in experiment [2], 8 µg/mL (≈ 24.8 µM); in experiment [3], 5.04 ± 2.3 µg/mL (≈ 15.6 µM); in experiment [4], 4.64 ± 5.6 µg/mL (≈ 14.4 µM); in experiment [5], 5.04 ± 2.3 µg/mL (≈ 15.6 µM); in [6], 5.04 ± 2.3 µg/mL (≈ 15.6 µM). The minimum inhibitory concentration in experiment [7] is 8 µg/mL (≈ 24.8 µM); in [8], 4 ± 3.1 µg/mL (≈ 12.4 µM); in experiment [9], 5.85 ± 4.9 µg/mL (≈ 18.1 µM); in [10], 4 ± 3.1 µg/mL (≈ 12.4 µM); in experiment [11], 8 µg/mL (≈ 24.8 µM); in [12], 9.28 ± 2.6 µg/mL (≈ 28.7 µM). Further, the minimum inhibitory concentration in experiment [14] was 5.04 ± 2.3 µg/mL (≈ 15.6 µM); in [15], 8 µg/mL (≈ 24.8 µM); in experiment [16] it was 9.28 ± 2.6 µg/mL (≈ 28.7 µM); in experiment [17] it was 6.35 ± 2.3 µg/mL (≈ 19.7 µM); in [18] it was 5.85 ± 4.9 µg/mL (≈ 18.1 µM); in [19], 11.7 ± 9.8 µg/mL (≈ 36.2 µM). The minimum inhibitory concentration turned out to be 5.85 ± 4.9 µg/mL (≈ 18.1 µM) in experiment [20]; 6.35 ± 2.3 µg/mL (≈ 19.7 µM) in experiment [21]; 5.04 ± 3.5 µg/mL (≈ 15.6 µM) in experiment [22]; 8 ± 16 µg/mL (≈ 24.8 µM) in experiment [23]; 9.28 ± 11 µg/mL (≈ 28.7 µM) in experiment [24]; 7.37 ± 4.2 µg/mL (≈ 22.8 µM) in experiment [25]. The compound also had a minimum inhibitory concentration in [26] of 7.37 ± 12 µg/mL (≈ 22.8 µM).

As to `C[C@@H](O)[C@H]1C(=O)N2C(C(=O)O)=C(S[C@@H]3CN[C@H](C(=O)N(C)C)C3)[C@H](C)[C@H]12` [meropenem], the minimum inhibitory concentration in experiment [1] came to 4 µg/mL (≈ 10.4 µM); in experiment [2], 4 µg/mL (≈ 10.4 µM); in experiment [4], 32 µg/mL (≈ 83.4 µM); in [5], 4 µg/mL (≈ 10.4 µM); in experiment [7], 4 µg/mL (≈ 10.4 µM); in experiment [9], 25.4 ± 9.2 µg/mL (≈ 66.2 µM). In addition, the minimum inhibitory concentration stood at 5.04 ± 2.3 µg/mL (≈ 13.1 µM) in experiment [11]; 10.1 ± 6.9 µg/mL (≈ 26.3 µM) in [12]; 20.2 ± 14 µg/mL (≈ 52.6 µM) in experiment [13]; 32 µg/mL (≈ 83.4 µM) in experiment [14]; 4 µg/mL (≈ 10.4 µM) in [15]; 12.7 ± 14 µg/mL (≈ 33.1 µM) in experiment [16]. The minimum inhibitory concentration in [17] came to 16 ± 12 µg/mL (≈ 41.7 µM); in [18], 25.4 ± 9.2 µg/mL (≈ 66.2 µM); in [19] it was 12.7 ± 14 µg/mL (≈ 33.1 µM); in [20], 20.2 ± 9.2 µg/mL (≈ 52.6 µM); in experiment [21] it was 5.04 ± 2.3 µg/mL (≈ 13.1 µM); in experiment [22], 32 µg/mL (≈ 83.4 µM). The minimum inhibitory concentration in experiment [24] is 20.2 ± 14 µg/mL (≈ 52.6 µM); in experiment [25], 20.2 ± 9.2 µg/mL (≈ 52.6 µM); in [26] it was 2 ± 1.5 µg/mL (≈ 5.22 µM).

Take `CC(C)(O/N=C(\C(=O)N[C@@H]1C(=O)N2C(C(=O)[O-])=C(C[n+]3ccccc3)CS[C@H]12)c1csc(N)n1)C(=O)O` [ceftazidime]: the minimum inhibitory concentration in [1] was determined as 8 µg/mL (≈ 14.6 µM); in experiment [2] it was 8 µg/mL (≈ 14.6 µM); in [3], 4 µg/mL (≈ 7.32 µM); in experiment [4], 4 µg/mL (≈ 7.32 µM); in experiment [5], 8 µg/mL (≈ 14.6 µM); in experiment [6] it was 4.58 ± 1.1 µg/mL (≈ 8.38 µM). For the same compound, the minimum inhibitory concentration in experiment [7] was determined as 8 µg/mL (≈ 14.6 µM); in experiment [8], 3.17 ± 1.1 µg/mL (≈ 5.81 µM); in experiment [9], 4 µg/mL (≈ 7.32 µM); in experiment [10], 3.17 ± 1.1 µg/mL (≈ 5.81 µM); in experiment [11] it was 3.17 ± 1.1 µg/mL (≈ 5.81 µM); in [12] it was 4 µg/mL (≈ 7.32 µM). Moreover, the minimum inhibitory concentration in experiment [13] worked out at 4 µg/mL (≈ 7.32 µM); in experiment [14] it was 3.17 ± 1.1 µg/mL (≈ 5.81 µM); in [15], 8 µg/mL (≈ 14.6 µM); in [16] it was 4 µg/mL (≈ 7.32 µM); in experiment [17], 12.7 ± 4.6 µg/mL (≈ 23.2 µM); in experiment [18] it was 4 µg/mL (≈ 7.32 µM). For the same compound, the minimum inhibitory concentration in [19] is 4 µg/mL (≈ 7.32 µM); in [20], 4 µg/mL (≈ 7.32 µM); in experiment [21], 8 µg/mL (≈ 14.6 µM); in [22] it was 2 ± 2 µg/mL (≈ 3.66 µM); in [23], 4 µg/mL (≈ 7.32 µM); in [24], 4 µg/mL (≈ 7.32 µM). For the same compound, the minimum inhibitory concentration in experiment [25] and in experiment [26] was 4 µg/mL (≈ 7.32 µM) in each case.

In the case of `C[C@H]1COc2c(N3CCN(C)CC3)c(F)cc3c(=O)c(C(=O)O)cn1c23` [levofloxacin], the minimum inhibitory concentration came out at 0.5 µg/mL (≈ 1.38 µM) in experiment [1]; 0.5 µg/mL (≈ 1.38 µM) in experiment [2]; 1 µg/mL (≈ 2.77 µM) in experiment [3]; 6.35 ± 2.3 µg/mL (≈ 17.6 µM) in experiment [4]; 0.5 µg/mL (≈ 1.38 µM) in experiment [5]; 1 µg/mL (≈ 2.77 µM) in experiment [6]. Further, the minimum inhibitory concentration in [7] was determined as 0.315 ± 0.14 µg/mL (≈ 0.872 µM); in [9] it was 10.1 ± 15 µg/mL (≈ 27.9 µM); in experiment [11], 0.63 ± 0.29 µg/mL (≈ 1.74 µM); in [13], 8 ± 6.1 µg/mL (≈ 22.1 µM); in [14], 1.59 ± 1.7 µg/mL (≈ 4.39 µM); in [15], 0.5 µg/mL (≈ 1.38 µM). Moreover, the minimum inhibitory concentration in experiment [17] was 0.63 ± 0.43 µg/mL (≈ 1.74 µM); in [18], 8 ± 6.1 µg/mL (≈ 22.1 µM); in experiment [20], 6.35 ± 2.3 µg/mL (≈ 17.6 µM); in experiment [21], 0.5 µg/mL (≈ 1.38 µM); in [22], 1.26 ± 0.58 µg/mL (≈ 3.49 µM); in experiment [23], 1.26 ± 0.87 µg/mL (≈ 3.49 µM). For the same compound, the minimum inhibitory concentration in experiment [24] came to 10.1 ± 15 µg/mL (≈ 27.9 µM); in experiment [26], 8 ± 6.1 µg/mL (≈ 22.1 µM).

For the compound `COc1cc(Cc2cnc(N)nc2N)cc(OC)c1OC.Cc1cc(NS(=O)(=O)c2ccc(N)cc2)no1` [trimethoprim/sulfamethoxazole], the minimum inhibitory concentration in [1] was found to be 8 µg/mL; in experiment [2], 6.35 ± 2.3 µg/mL; in [3], 25.4 ± 9.2 µg/mL; in experiment [5], 8 µg/mL; in experiment [6], 25.4 ± 9.2 µg/mL; in [7], 6.35 ± 2.3 µg/mL. Also, the minimum inhibitory concentration in experiment [8] worked out at 25.4 ± 9.2 µg/mL; in [9] it was 25.4 ± 9.2 µg/mL; in experiment [10], 20.2 ± 9.2 µg/mL; in experiment [11], 16 µg/mL; in experiment [12], 20.2 ± 14 µg/mL; in [13] it was 25.4 ± 9.2 µg/mL. Moreover, the minimum inhibitory concentration in [14] turned out to be 32 µg/mL; in [15], 8 µg/mL; in experiment [16] it was 12.7 ± 14 µg/mL; in [17], 20.2 ± 9.2 µg/mL; in experiment [18], 20.2 ± 9.2 µg/mL; in experiment [19], 25.4 ± 9.2 µg/mL. Moreover, the minimum inhibitory concentration in [20] was 22.6 ± 11 µg/mL; in experiment [21], 10.1 ± 4.6 µg/mL; in [22] it was 32 µg/mL; in experiment [23], 32 µg/mL; in experiment [25] it was 12.7 ± 4.6 µg/mL; in experiment [26] it was 20.2 ± 9.2 µg/mL.

Source of the values: the supplement of paper PMC7029842.
